Each structure is given as a SMILES string.

These results are taken from patent publication US9469615B2, “Quinoxalines and AZA-quinoxalines as CRTH2 receptor modulators” (Merck Sharp & Dohme Corp., priority 2010, dated 2016).

This assay has as its target T1, hCRTH2 (Homo sapiens, UniProt Q9Y5Y4).
T1 construct: expressed in transfected cells; host or cells: HEK (human embryonic kidney) cells expressing hCRTH2; membrane preparation
T1 sequence (Q9Y5Y4 1-395): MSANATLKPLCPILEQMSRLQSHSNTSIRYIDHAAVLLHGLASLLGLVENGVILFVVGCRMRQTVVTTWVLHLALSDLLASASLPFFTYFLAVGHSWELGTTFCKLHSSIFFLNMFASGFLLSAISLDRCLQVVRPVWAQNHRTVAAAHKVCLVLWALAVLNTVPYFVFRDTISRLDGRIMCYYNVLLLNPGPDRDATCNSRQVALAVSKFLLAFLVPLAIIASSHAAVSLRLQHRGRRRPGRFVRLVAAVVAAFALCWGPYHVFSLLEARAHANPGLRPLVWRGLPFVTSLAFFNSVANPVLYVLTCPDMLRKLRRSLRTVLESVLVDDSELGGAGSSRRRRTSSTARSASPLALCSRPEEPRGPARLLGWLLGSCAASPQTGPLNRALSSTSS
The assay is described as follows: Radioligand binding assay ([3H]PGD2 competition, HEK-hCRTH2 membranes). As to conditions: [3H]PGD2 binding. The gist of the method: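 HEK-hCRTH2 membranes, 8-20 μg; [3H]PGD2 3.0 nM; 50 mM Tris-HCl pH 7.4/1 mM EDTA/2 mM MnCl2; DMSO 1%; 60 min RT; NSB 10 μM PGD2; filtration, scintillation counting.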

Usually Ki stands for the equilibrium dissociation constant of an inhibitor or competing ligand from its target. Lower therefore signals higher affinity. For the setting “rated A-E (Table A)”, `O=C(O)CCCCc1nc2cc(C(=O)N3CC=C(c4ccc(Cl)cc4)CC3)ccc2nc1-c1ccc(F)cc1` [compound 136, 7-[[4-(4-chlorophenyl)-3,6-dihydro-1(2H)-pyridinyl]carbonyl]-3-(4-fluorophenyl)-2-quinoxalinepentanoic acid] registered an inhibition constant (Ki) of 2.1 to 20 nM.

Regarding `O=C(O)CCCCc1nc2cc(C(=O)N[C@H](c3ccccc3)C(F)(F)F)ccc2nc1-c1ccc(F)cc1` [compound 137, 3-(4-fluorophenyl)-7-[[[2,2,2-2-trifluoro-1(R)-phenylethyl)amino]carbonyl]-2-quinoxalinepentanoic acid], the Ki (rated A-E (Table A)) was 20.1 to 200 nM.

Regarding `O=C(O)CCCCc1nc2cc(C(=O)N[C@@H](c3ccc(F)cc3)C(F)(F)F)ccc2nc1-c1ccc(F)cc1` [compound 138, 3-(4-fluorophenyl)-7-[[[2,2,2-trifluoro-1(S)-(4-fluorophenyl)ethyl]amino]carbonyl]-2-quinoxalinepentanoic acid], the Ki (rated A-E (Table A)) was in the range of 2.1 to 20 nM.

In turn, `O=C(O)CCCCc1nc2cc(C(=O)N[C@H](c3ccc(F)cc3)C(F)(F)F)ccc2nc1-c1ccc(F)cc1` [compound 139, 3-(4-fluorophenyl)-7-[[[(1R)-2,2,2-trifluoro-1-(4-fluorophenyl)ethyl]amino]carbonyl]-2-quinoxalinepentanoic acid] had an inhibition constant (Ki) (rated A-E (Table A)) of 2.1 to 20 nM.

On to `O=C(O)CCCCc1nc2cc(C(=O)N3CC[C@@H](c4ccccc4)C3)ccc2nc1-c1ccccc1` [compound 140, 3-phenyl-7-[(3(S)-phenyl-1-pyrrolidinyl)carbonyl]-2-quinoxalinepentanoic acid], for which, for the setting “rated A-E (Table A)”, the Ki fell in the range of 0.1 to 2 nM.

`O=C(O)CCCCc1nc2cc(C(=O)N3CC[C@H](c4ccccc4)C3)ccc2nc1-c1ccccc1` [compound 141, 3-phenyl-7-[(3(R)-phenyl-1-pyyrolidinyl)carbonyl]-2-quinoxalinepentanoic acid] came in with a Ki (rated A-E (Table A)) of 2.1 to 20 nM.

In the case of `O=C(O)CCCCc1nc2cc(C(=O)N3CCC[C@@H](c4ccccc4)C3)ccc2nc1-c1ccccc1` [compound 142, 3-phenyl-7-[(3(S)-phenyl-1-piperidinyl)carbonyl]-2-quinoxalinepentanoic acid], the Ki (rated A-E (Table A)) was in the range of 2.1 to 20 nM.

Under “rated A-E (Table A)”, `O=C(O)CCCCc1nc2cc(C(=O)N3CCC[C@H](c4ccccc4)C3)ccc2nc1-c1ccccc1` [compound 143, 3-phenyl-7-[(3(R)-phenyl-1-piperidinyl)carbonyl]-2-quinooxalinepentanoic acid] came in with a Ki of 2.1 to 20 nM.

Consider `NC(=O)c1ccc2nc(-c3ccccc3)c(CCCCC(=O)O)nc2c1` [compound 144, 5-(7-carbamoyl-3-phenylquinoxalin-2-yl)pentanoic acid], for which the Ki runs as follows: (rated A-E (Table A)) 20.1 to 200 nM; (values in text) 118 nM.

Where the note is “rated A-E (Table A)”, `O=C(O)CCCCc1nc2cc(C(=O)N3CCC(n4ccnc4)CC3)ccc2nc1-c1ccccc1` [compound 145, 5-(7-(4-(1H-imidazol-1-yl)piperidine-l-carbonyl)-3-phenylquinoxalin-2-yl)pentanoic acid] gave an inhibition constant Ki of 2.1 to 20 nM.

Take `C[C@H](NC(=O)c1ccc2nc(-c3ccc(C(F)(F)F)cc3)c(CCCCC(=O)O)nc2c1)c1ccccn1` [compound 146, 7-[[[1(S)-(2-pyridinyl)ethyl]amino]carbonyl]-3-[4-(trifluoromethyl)phenyl]-2-quinoxalinepentanoic acid]: the Ki (rated A-E (Table A)) was in the range of 20.1 to 200 nM and the affinity (values in text), expressed as Ki, was 132 nM.

Turning to `C[C@@H](NC(=O)c1ccc2nc(-c3ccc(C(F)(F)F)cc3)c(CCCCC(=O)O)nc2c1)c1ccccn1` [compound 147, 7-[[[1(R)-(2-pyridinyl)ethyl]amino]carbonyl]-3-[4-(trifluoromethyl)phenyl]-2-quinoxalinepentanoic acid], the Ki (rated A-E (Table A)) is 2.1 to 20 nM.

For `O=C(O)CCCCc1nc2cc(C(=O)N3CCC(c4ccccc4)CC3)ccc2nc1-c1ccc(C(F)(F)F)cc1` [compound 148, 7-[(4-phenyl-1-piperidinyl)carbonyl]-3-[4-(trifluoromethyl)phenyl]-2-quinoxalinepentanoic acid], the inhibition constant (Ki) (rated A-E (Table A)) lay in the range of 0.1 to 2 nM.

Consider `O=C(O)CCCCc1nc2cc(C(=O)N[C@@H](c3ccccc3)C(F)(F)F)ccc2nc1-c1ccc(C(F)(F)F)cc1` [compound 149, 3-[4-(trifluoromethyl)phenyl]-7-[[(2,2,2-trifluoro-1(S)-phenylethyl)amino]carbonyl]-2-quinoxalinepentanoic acid], for which the Ki (rated A-E (Table A)) lay in the range of 2.1 to 20 nM.

`O=C(O)CCCCc1nc2cc(C(=O)NC3Cc4ccccc4C3)ccc2nc1-c1ccc(C(F)(F)F)cc1` [compound 150, 7-[[(2,3-dihydro-1H-inden-2-yl)amino]carbonyl]-3-[4-(trifluoromethyl)phenyl]-2-quinoxalinepentanoic acid] registered a Ki (rated A-E (Table A)) of 0.1 to 2 nM.

`O=C(O)CCCCc1nc2cc(C(=O)NCc3cccc(Cl)c3)ccc2nc1-c1ccc(C(F)(F)F)cc1` [compound 151, 7-[[[(3-chlorophenyl)methyl]amino]carbonly]-3-[4-(trifluoromethyl)phenyl]-2-quinoxalinepentanoic acid]: the Ki (rated A-E (Table A)) lay in the range of 0.1 to 2 nM.

On to `O=C(O)CCCCc1nc2cc(C(=O)N3CC(c4ccccc4)C3)ccc2nc1-c1ccc(C(F)(F)F)cc1` [compound 154, 7-[(3-phenyl-1-azetidinyl)carbonyl]-3-[4-(trifluoromethyl)phenyl]-2-quinoxalinepentanoic acid], for which the inhibition constant Ki (rated A-E (Table A)) fell in the range of 0.1 to 2 nM.

As to `O=C(O)CCCCc1nc2cc(C(=O)NCc3ccc(Cl)cc3)ccc2nc1-c1ccc(C(F)(F)F)cc1` [compound 155, 7-[[[(4-chlorophenyl)methyl]amino]carbonyl]-3-[4-(trifluoromethyl)phenyl]-2-quinoxalinepentanoic acid], the inhibition constant (Ki) (rated A-E (Table A)) lay in the range of 2.1 to 20 nM.

In turn, `O=C(O)CCCCc1nc2cc(C(=O)NCc3ccc(OC(F)(F)F)cc3)ccc2nc1-c1ccc(C(F)(F)F)cc1` [compound 156, 7-[[[[4-(trifluoromethoxy)phenyl]methyl]amino]carbonyl]-3-[4-(trifluoromethyl)phenyl]-2-quinoxalinepentanoic acid] registered a Ki (rated A-E (Table A)) of 2.1 to 20 nM.

Take `N#Cc1ccc(CNC(=O)c2ccc3nc(-c4ccc(C(F)(F)F)cc4)c(CCCCC(=O)O)nc3c2)cc1` [compound 157, 7-[[[(4-cyanophenyl)methyl]amino]carbonyl]-3-[4-(trifluoromethyl)phenyl]-2-quinoxalinepentanoic acid]: the inhibition constant (Ki) (rated A-E (Table A)) was in the range of 2.1 to 20 nM.

For the setting “rated A-E (Table A)”, `O=C(O)Cc1ccc(CCc2nc3cc(C(=O)N4CCC(c5ccccc5)CC4)ccc3nc2-c2ccc(Cl)cc2)cc1` [compound 158, 4-[2-[3-(4-chlorophenyl)-7-[(4-phenyl-1-piperidinyl)carbonyl]-2-quinoxalinyl]ethyl] benzeneacetic acid] yielded an inhibitory constant (Ki) of 201 to 700 nM.

With `O=C(O)Cc1ccc(CCc2nc3cc(C(=O)NCc4cccc(Cl)c4)ccc3nc2-c2ccc(Cl)cc2)cc1` [compound 159, 4-[2-[3-(4-chlorophenyl)-7-[[[(3-chlorophenyl)methyl]amino]carbonyl]-2-quinoxalinyl]ethyl] benzeneacetic acid], the Ki by setting is: (rated A-E (Table A)) 201 to 700 nM; (values in text) 564 nM.

`CC(CCCc1nc2cc(C(=O)NCc3cccc(F)c3)ccc2nc1-c1ccc(Cl)cc1)C(=O)O` (stereo not drawn) [compound 160, 3-(4-chlorophenyl)-7-[[[(3-fluorophenyl)methyl]amino]carbonyl]-alpha-methyl-2-quinoxalinepentanoic acid] returned a Ki (rated A-E (Table A)) of 2.1 to 20 nM.

With `CC(CCCc1nc2cc(C(=O)NCc3ccc(F)cc3)ccc2nc1-c1ccc(Cl)cc1)C(=O)O` (stereo not drawn) [compound 161, 3-(4-chlorophenyl)-7-[[[(4-fluorophenyl)methyl]amino]carbonyl]-alpha-methyl-2-quinoxalinepentanoic acid], the Ki (rated A-E (Table A)) was 2.1 to 20 nM.

As for `CC(CCCc1nc2cc(C(=O)N3CCC(c4ccccc4)CC3)ccc2nc1-c1ccc(Cl)cc1)C(=O)O` (stereo not drawn) [compound 162, 3-(4-chlorophenyl)-alpha-methyl-7-[(4-phenyl-1-piperidinyl)carbonyl]-2-quinoxalinepentanoic acid], the Ki (rated A-E (Table A)) lay within 0.1 to 2 nM.

With `CC(CCCc1nc2cc(C(=O)N[C@@H](c3ccccc3)C(F)(F)F)ccc2nc1-c1ccc(Cl)cc1)C(=O)O` (stereo partly drawn) [compound 163, 3-(4-chlorophenyl)-alpha-methyl-7-[[(2,2,2-trifluoro-1(S)-phenylethyl)amino]carbonyl]-2-2-quinoxalinepentanoic acid], the Ki (rated A-E (Table A)) lay in the range of 2.1 to 20 nM.

Molecule `CC(CCCc1nc2cc(C(=O)NCc3ccc(C#N)cc3)ccc2nc1-c1ccc(Cl)cc1)C(=O)O` (stereo not drawn) [compound 164, 3-(4-chlorophenyl)-7-[[[(4-cyanophenyl)methyl]amino]carbonyl]-alpha-methyl-2-quinoxalinepentanoic acid] returned an inhibition constant Ki (rated A-E (Table A)) of 2.1 to 20 nM.

In turn, `CC(CCCc1nc2cc(C(=O)N3CC(c4ccccc4)C3)ccc2nc1-c1ccc(Cl)cc1)C(=O)O` (stereo not drawn) [compound 165, 3-(4-chlorophenyl)-alpha-methyl-7-[(3-phenyl-1-azetidinyl)carbonyl]-2-quinoxalinepentanoic acid] yielded a Ki (rated A-E (Table A)) of 2.1 to 20 nM.

On to `CC(CCCc1nc2cc(C(=O)N[C@H](C)c3ccc(F)cc3)ccc2nc1-c1ccc(Cl)cc1)C(=O)O` (stereo partly drawn) [compound 166, 3(4-chlorophenyl)-7-[[[1(R)-(4-fluorophenyl)ethyl]amino]carbonyl]-alpha-methyl-2-quinoxalinepentanoic acid], for which the Ki (rated A-E (Table A)) lay in the range of 2.1 to 20 nM.

As for `CC(CCCc1nc2cc(C(=O)N[C@@H](C)c3ccc(F)cc3)ccc2nc1-c1ccc(Cl)cc1)C(=O)O` (stereo partly drawn) [compound 167, 3-(4-chlorophenyl)-7-[[[1(S)-(4-fluorophenyl)ethyl]amino]carbonyl]-alpha-methyl-2-quinoxalinepentanoic acid], the Ki (rated A-E (Table A)) lay in the range of 2.1 to 20 nM.
